# According to patent US11702663B2, “Bacteria-based protein delivery” (Universitaet Basel, priority 2015, dated 2023):
# B1: SteA1-20 fused murine tBID: 20 N-terminal amino acids of SteA fused to murine tBID, delivered by S. enterica (protein)
# chain: MPYTSVSTYARALSGNKLPHGTGSQASRSFNQGRIEPDSESQEEIIHNIARHLAQIGDEMDHNIQPTLVRQLAAQFMNGSLSEEDKRNCLAKALDEVKTAFPRDMENDKAMLIMTMLLAKKVASHAPSLLRDVFHTTVNFINQNLFSYVRNLVRNEMD
# modifications: SteA1-20 - S. enterica codon optimized murine t-BID
# notes: 20 N-terminal amino acids of SteA fused to murine tBID, delivered by S. enterica
# What was measured:
# [1] = system: B16F10 murine melanoma cells; format: cell-based
# [2] = system: 4T1 murine breast cancer cells; format: cell-based
# [3] = system: HeLa cells; format: cell-based, human
# [4] = system: HeLa cells; format: cell-based, human; remark: listed apart in the source
# [5] = system: Akt; format: cell-based, human
# [6] = system: HeLa cells; format: cell-based, human; remark: listed apart in the source
# [7] = system: zebrafish embryos; details: in vivo
# [8] = system: B16F10 cells; format: cell-based, murine
# [9] = system: D2A1 cells; format: cell-based
# [10] = system: 4T1 cells; format: cell-based, murine
# [11] = system: p38; format: cell-based, human
# [12] = system: HeLa cells; format: cell-based, human; remark: listed apart in the source
# [13] = system: HeLa cells; assay: Western blotting of T3SS translocated proteins from infected cells (digitonin lysis); format: cell-based, human; details: HeLa cells coinfected with strain delivering 2×TEV cleavage site substrate, 2 h, MOI of 100
# Source text: Western blotting of T3SS translocated proteins from infected cells. HeLa cells in 6-well plates were infected at an MOI of 100 as described above. In case of coinfection with the TEV protease translocating Y. enterocolitica strain, the OD600 of the strains was set and the two bacterial suspensions were mixed in a tube at a ratio of 1:1 (if not otherwise indicated) before addition to the cells. At the end of the infection, the cells were washed twice with ice-cold PBS and collected by scraping in a small volume of ice-cold PBS. After centrifugation (16 000 rcf, 5 min, 4° C.) the pellet was dissolved in 0.002% digitonin supplemented with a protease inhibitor cocktail (Roche complete, Roche). The dissolved pellets were incubated for 5 minutes on ice and then centrifuged (16 000 rcf, 25 min, 4° C.). Supernatants were collected and analyzed for total protein content by […] (Pierce) before SDS PAGE and Western blotting using an anti-Myc (Santa Cruz, 9E11) or anti-Ink4C (Cell Signaling) antibody.
molecule,measurement,setting,value
"YopE1-138-(tBID-BH3): BH3 domain of murine tBID fused to YopE1-138, control for repeated domain constructs",cell death (nuclear count),[1],triggered cell death
same,cell death (nuclear count),[2],triggered cell death
BepA: YopE1-138 fusion to full length type IV effector BepA from B. henselae,cAMP production,[3],triggered cAMP production in expected amounts
"YopE1-138-SopE: YopE1-138 fusion to SopE from Salmonella enterica, a guanine nucleotide exchange factor",changes in the actin network,[4],induced dramatic changes in the actin network
same,first changes in the actin cytoskeleton observed,[4],2 min p.i.
same,phosphorylation of Akt at T308 and S473,[5],had no effect on Akt
YopE1-138-z-BIM: YopE1-138 fusion to zebrafish apoptosis inducer z-BIM,apoptosis induction / cell death,[6],showed clear signs of cell death
same,"apoptosis in nearby cells, automated image analysis on maximum intensity z projections",[7],induce apoptosis in nearby cells by far more than control bacteria do
same,cleaved CASP3 (p17) staining in regions surrounding the bacteria,[7],strong increase in presence of cleaved CASP3
"BH3 domain of murine BAX: YopE1-138 fusion to BH3 domain of murine BAX, codon optimized for Y. enterocolitica",cell death,[6],induce massive cell death
same,cell death,[8],induce massive cell death
same,cell death,[9],induce massive cell death
same,cell death,[10],induce massive cell death
BepAE305-end: YopE1-138 fusion to BepA E305-end containing the C-terminal Bid domain,cAMP production,[3],triggered cAMP production in expected amounts
"BH3 domain of murine BID: YopE1-138 fusion to BH3 domain of murine tBID, codon optimized for Y. enterocolitica",cell death,[6],induce massive cell death
same,cell death,[8],induce massive cell death
same,cell death,[9],induce massive cell death
same,cell death,[10],induce massive cell death
"YopE1-138-(tBID BH3)2: murine BH3 domain of tBID fused to itself, fused to YopE1-138","IC50 (MOI), pBad-MycHisA based delivery compared with pYV encoded",[1],slightly decreased IC50 value
same,"capacity of inducing apoptosis, IC50 (MOI needed to kill 50% of cells)",[1],decreased upon delivery of tandem repeats of tBID BH3 domain as compared to a single tBID BH3 domain
same,cell death (nuclear count),[1],more active than YopE1-138-(tBID-BH3) at lower MOI
same,"efficiency of cell killing, IC50 (MOI needed to kill 50% of cells)",[1],decreased upon delivery of tandem repeats of tBID BH3 domain as compared to a single tBID BH3 domain
same,"IC50 (MOI), pBad-MycHisA based delivery compared with pYV encoded",[2],slightly decreased IC50 value
same,"capacity of inducing apoptosis, IC50 (MOI needed to kill 50% of cells)",[2],decreased upon delivery of tandem repeats of tBID BH3 domain as compared to a single tBID BH3 domain
same,cell death (nuclear count),[2],more active than YopE1-138-(tBID-BH3) at lower MOI
same,"efficiency of cell killing, IC50 (MOI needed to kill 50% of cells)",[2],decreased upon delivery of tandem repeats of tBID BH3 domain as compared to a single tBID BH3 domain
YopE1-138-SopB: YopE1-138 fusion to Salmonella type III effector SopB,phosphorylation of Akt at T308 and S473,[5],induced a strong phosphorylation of Akt at T308 and S473
"YopE1-138-SptP: YopE1-138 fusion to SptP, a GTPase activating protein (GAP) for Cdc42",effect of co-infection on F-actin rearrangements triggered by YopE1-138-SopE-Myc,[4],abolished this effect in a dose dependent manner
"YopE1-138-OspF: YopE1-138 fusion to S. flexneri type III effector OspF, a phosphothreonine lyase",TNFα-induced p38 phosphorylation,[11],TNFα-induced phosphorylation was abolished
BepG: YopE1-138 fusion to the Bid domain of the B. henselae effector BepG,cAMP production,[3],failed to induce cAMP
"Murine tBID fused to full length SteA: full length SteA fused to murine tBID, delivered by S. enterica",apoptosis induction (CASP3 p17 subunit),[12],lead to apoptosis induction
"YopE1-138-(tBID-BH3)-(BAX-BH3): murine BH3 domain of tBID fused to murine BH3 domain of BAX, fused to YopE1-138",cell death (nuclear count),[1],more active than YopE1-138-(tBID-BH3) at lower MOI
same,cell death (nuclear count),[2],more active than YopE1-138-(tBID-BH3) at lower MOI
TEV protease: TEV protease (S219V variant) fused to YopE1-138,activity of T3SS delivered TEV protease,[13],functional
YopE1-138-SopE-Myc: YopE1-138 fusion to SopE with MycHis tag,F-actin rearrangements,[4],triggered massive F-actin rearrangements
YopE1-138-tBID: YopE1-138 fusion to human truncated BID (tBID),apoptosis induction / cell death,[6],triggered cell death in larger extend than the well-characterized apoptosis inducer staurosporin
same,"apoptotic response (confocal images, mitochondrial integrity)",[6],induces a rapid apoptotic response
same,production of CASP3 p17 subunit,[6],"lead to the production of CASP3 p17 subunit, even in larger amounts as with staurosporin"
murine tBID: murine tBID codon optimized for Y. enterocolitica fused to YopE1-138,cell death,[6],triggered cell death
same,cell death,[8],triggered cell death
same,cell death,[9],triggered cell death
same,cell death,[10],triggered cell death
YopE1-138-BID: YopE1-138 fusion to human BH3 interacting-domain death agonist (BID),apoptosis induction / cell death,[6],failed to induce apoptosis
B1,apoptosis induction (CASP3 p17 subunit),[12],failed to induce apoptosis
